In US11723908B2, “Quinazoline derivatives as antitumor agents” (SUZHOU ZANRONG PHARMA LIMITED, priority 2018, dated 2023) one finds IC50 data, which are given here for 23 molecules.

This test has as its target HER2 (Homo sapiens (Human), UniProt P04626). As to the kind of experiment: BT474 cellular assay (HER2 inhibition), phospho-HER2 ELISA. It counts as cell-based. Particulars: inhibition of phosphor HER2, BT474 cells, 2 hours compound incubation. How it is done: Assay a) BT474 Cellular Assay (HER2 Inhibition) Inhibition of phosphor HER2 was determined by enzyme-linked immunosorbent assay (ELISA) in BT474 cells. BT474 cell line was purchased from [NT] number HTB-20). Human Phospho-ErbB2 ELISA kit was purchased from R&D systems (catalog number DYC1768). Day 1: When the cells reach 70-90% confluence, cells were trypsinized and re-suspended. 5000 cells per well were seeded to a 384-well plate. The plate was incubated at 37° C. with 5% CO2 for 24 hours. ELISA plate was coated with 2 μg/ml capture antibody, which was incubated at 4° C. overnight. Day 2: 25 nl compounds was dosed by Echo from source plate and the 384-well plate was incubated at 37° C. for 2 hours. 30 μl lysis buffer was added to each well and the 384-well plate was shaken softly at 4° C. for 30 minutes. The ELISA plate was washed, blocked and incubated at room temperature for 1-2 hours. The blocked ELISA plate was washed and 20 μl cell lysate was transferred from the 384-well plate to the ELISA plate, which was incubated overnight at 4° C. Day 3: The ELISA plate was washed 3 times. 25 μl/well detection antibody was added (diluted 1 by 2000 in 1% BSA in PBS). After 2 hours of incubation with detection antibody, the ELISA plate was washed 3 times, 25 μl/well TMB substrate was added and incubated for 10-15 minutes before stop solution was added. Absorbance at 450 nm and 570 nm was read within 30 minutes after adding the stop solution. […] The IC50 results are provided in Table 1 for some exemplary compounds.
For orientation: ELISA stands for enzyme-linked immunosorbent assay.

pIC50: −log10 of the molar value.

HER2, sequence (P04626 23-1255): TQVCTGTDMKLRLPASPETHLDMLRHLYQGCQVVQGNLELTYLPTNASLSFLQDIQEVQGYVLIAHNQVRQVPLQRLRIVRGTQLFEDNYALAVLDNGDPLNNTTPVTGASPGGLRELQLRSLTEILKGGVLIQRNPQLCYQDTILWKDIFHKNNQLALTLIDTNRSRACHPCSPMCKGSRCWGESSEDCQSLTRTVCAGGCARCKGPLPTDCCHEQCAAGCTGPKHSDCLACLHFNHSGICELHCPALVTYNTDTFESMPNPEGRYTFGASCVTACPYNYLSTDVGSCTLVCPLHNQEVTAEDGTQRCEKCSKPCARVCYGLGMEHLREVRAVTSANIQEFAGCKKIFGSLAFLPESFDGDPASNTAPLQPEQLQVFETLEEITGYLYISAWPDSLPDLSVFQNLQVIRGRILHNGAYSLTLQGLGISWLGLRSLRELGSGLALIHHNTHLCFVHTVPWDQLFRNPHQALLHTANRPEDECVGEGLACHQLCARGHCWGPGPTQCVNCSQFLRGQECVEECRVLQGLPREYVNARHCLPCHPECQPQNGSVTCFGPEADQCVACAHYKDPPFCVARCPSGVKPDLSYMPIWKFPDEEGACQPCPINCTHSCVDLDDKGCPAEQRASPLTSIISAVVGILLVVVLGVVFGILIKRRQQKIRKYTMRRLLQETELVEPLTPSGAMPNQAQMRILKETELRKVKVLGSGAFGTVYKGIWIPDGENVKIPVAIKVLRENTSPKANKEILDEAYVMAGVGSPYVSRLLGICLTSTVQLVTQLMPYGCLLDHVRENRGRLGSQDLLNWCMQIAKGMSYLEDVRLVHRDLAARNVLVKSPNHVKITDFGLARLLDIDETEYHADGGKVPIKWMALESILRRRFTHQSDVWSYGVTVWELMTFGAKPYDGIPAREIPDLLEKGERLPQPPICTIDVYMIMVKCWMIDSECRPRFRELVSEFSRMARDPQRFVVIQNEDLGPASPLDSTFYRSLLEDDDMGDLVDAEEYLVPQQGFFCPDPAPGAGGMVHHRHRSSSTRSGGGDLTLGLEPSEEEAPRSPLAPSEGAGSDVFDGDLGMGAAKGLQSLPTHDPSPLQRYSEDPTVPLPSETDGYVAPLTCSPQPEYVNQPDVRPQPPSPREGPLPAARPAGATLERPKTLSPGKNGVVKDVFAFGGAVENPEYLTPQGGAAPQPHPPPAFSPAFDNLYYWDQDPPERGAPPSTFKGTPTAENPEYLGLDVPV

One may read the pIC50 as −log10 of the IC50, conventionally taken in molar units. High values mean a small IC50, low ones a large IC50. Molecule `COc1ccc2ncnc(Nc3ccc(Oc4cc5ncnn5cn4)c(C)c3)c2c1N1CC2C1CCN2CC(F)F` (centres unmarked) [Example 68, N-(4-([1,2,4]triazolo[1,5-c]pyrimidin-7-yloxy)-3-methylphenyl)-5-(2-(2,2-difluoroethyl)-2,6-diazabicyclo[3.2.0]heptan-6-yl)-6-methoxyquinazolin-4-amine] had a negative-log IC50 (pIC50) of 8.19.
`Cc1cc(Nc2ncnc3ccc(OC(C)C)c(O[C@H]4CCN(C)CC4(F)F)c23)ccc1Oc1cc2ncnn2cn1` [Example 30, (S)—N-(4-([1,2,4]triazolo[1,5-c]pyrimidin-7-yloxy)-3-methylphenyl)-5-((3,3-difluoro-1-methylpiperidin-4-yl)oxy)-6-isopropoxyquinazolin-4-amine]: the pIC50 was 7.70.
Consider `Cc1cc(Nc2ncnc3ccc(OC(F)F)c(O[C@@H]4CCN(C)CC4(F)F)c23)ccc1Oc1cc2ncnn2cn1` [Example 17, (R)—N-(4-([1,2,4]triazolo[1,5-c]pyrimidin-7-yloxy)-3-methylphenyl)-5-((3,3-difluoro-1-methylpiperidin-4-yl)oxy)-6-(difluoromethoxy)quinazolin-4-amine], for which the negative logarithm of the IC50 (pIC50) is 7.46.
The value for `Cc1cc(Nc2ncnc3ccc(O[C@H]4CCOC4)c(O[C@H]4CCN(C)CC4(F)F)c23)ccc1Oc1cc2ncnn2cn1` [Example 22, N-(4-([1,2,4]triazolo[1,5-c]pyrimidin-7-yloxy)-3-methylphenyl)-5-(((S)-3,3-difluoro-1-methylpiperidin-4-yl)oxy)-6-(((S)-tetrahydrofuran-3-yl)oxy)quinazolin-4-amine] was 7.68; that for `C=CC(=O)N1CC=C(c2ccc3ncnc(Nc4ccc(Oc5cc6ncnn6cn5)c(C)c4)c3c2N2CC(N(C)C)C2)CC1` [Example 80, 1-(4-(4-((4-([1,2,4]triazolo[1,5-c]pyrimidin-7-yloxy)-3-methylphenyl)amino)-5-(3-(dimethylamino)azetidin-1-yl)quinazolin-6-yl)-3,6-dihydropyridin-1(2H)-yl)prop-2-en-1-one] was 6.41.
Consider `COc1ccc2ncnc(Nc3ccc(Oc4cc5ncnn5cn4)c(C)c3)c2c1O[C@H]1CN(C)CC1(F)F` [Example 75, (S)—N-(4-([1,2,4]triazolo[1,5-c]pyrimidin-7-yloxy)-3-methylphenyl)-5-((4,4-difluoro-1-methylpyrrolidin-3-yl)oxy)-6-methoxyquinazolin-4-amine], for which the pIC50 is 7.89.
Molecule `Cc1cc(Nc2ncnc3ccc(O[C@H]4CCOC4)c(O[C@@H]4CCN(C)CC4(F)F)c23)ccc1Oc1cc2ncnn2cn1` [Example 21, N-(4-([1,2,4]triazolo[1,5-c]pyrimidin-7-yloxy)-3-methylphenyl)-5-(((R)-3,3-difluoro-1-methylpiperidin-4-yl)oxy)-6-(((S)-tetrahydrofuran-3-yl)oxy)quinazolin-4-amine] gave a pIC50 of 7.82.
As for `C=CC(=O)N1CC=C(c2ccc3ncnc(Nc4ccc(Oc5cc6ncnn6cn5)c(C)c4)c3c2O[C@@H]2CCN(C)CC2(F)F)CC1` [Example 81, (R)-1-(4-(4-((4-([1,2,4]triazolo[1,5-c]pyrimidin-7-yloxy)-3-methylphenyl)amino)-5-((3,3-difluoro-1-methylpiperidin-4-yl)oxy)quinazolin-6-yl)-3,6-dihydropyridin-1(2H)-yl)prop-2-en-1-one], the figure is 6.65; as for `COc1ccc2ncnc(Nc3ccc(Oc4cc5ncnn5cn4)c(C)c3)c2c1OC1CCNCC1(F)F` (centres unmarked) [Example 76, N-(4-([1,2,4]triazolo[1,5-c]pyrimidin-7-yloxy)-3-methylphenyl)-5-((3,3-difluoropiperidin-4-yl)oxy)-6-methoxyquinazolin-4-amine], 7.96.
As for `C=CC(=O)N1CCC=C(c2ccc3ncnc(Nc4ccc(Oc5cc6ncnn6cn5)c(C)c4)c3c2N2CC(N(C)C)C2)C1` [Example 82, 1-(5-(4-((4-([1,2,4]triazolo[1,5-c]pyrimidin-7-yloxy)-3-methylphenyl)amino)-5-(3-(dimethylamino)azetidin-1-yl)quinazolin-6-yl)-3,6-dihydropyridin-1(2H)-yl)prop-2-en-1-one], the pIC50 was 6.75.
`COc1cc2ncnc(Nc3ccc(Oc4cc5ncnn5cn4)c(C)c3)c2c(O[C@@H]2CCN(C)CC2(F)F)c1OC` [Example 99, (R)—N-(4-([1,2,4]triazolo[1,5-c]pyrimidin-7-yloxy)-3-methylphenyl)-5-((3,3-difluoro-1-methylpiperidin-4-yl)oxy)-6,7-dimethoxyquinazolin-4-amine] showed a negative logarithm of the IC50 (pIC50) of 6.77.
The value for `COc1ccc2ncnc(Nc3ccc(Oc4cc5ncnn5cn4)c(C)c3)c2c1OC1CCN(C)CC1` [Example 5, N-(4-([1,2,4]triazolo[1,5-c]pyrimidin-7-yloxy)-3-methylphenyl)-6-methoxy-5-((1-methylpiperidin-4-yl)oxy)quinazolin-4-amine] was 7.09; that for `Cc1cc(Nc2ncnc3ccc(OC(F)F)c(O[C@H]4CCN(C)CC4(F)F)c23)ccc1Oc1cc2ncnn2cn1` [Example 18, (S)—N-(4-([1,2,4]triazolo[1,5-c]pyrimidin-7-yloxy)-3-methylphenyl)-5-((3,3-difluoro-1-methylpiperidin-4-yl)oxy)-6-(difluoromethoxy)quinazolin-4-amine] was 7.32; that for `Cc1cc(Nc2ncnc3ccc(OC(C)C)c(O[C@@H]4CCN(C)CC4(F)F)c23)ccc1Oc1cc2ncnn2cn1` [Example 29, (R)—N-(4-([1,2,4]triazolo[1,5-c]pyrimidin-7-yloxy)-3-methylphenyl)-5-((3,3-difluoro-1-methylpiperidin-4-yl)oxy)-6-isopropoxyquinazolin-4-amine] was 8.03.
The molecule `COc1ccc2ncnc(Nc3ccc(Oc4cc5ncnn5cn4)c(C)c3)c2c1N1CC2C1CCN2C1CC1` (centres unmarked) [Example 67, N-(4-([1,2,4]triazolo[1,5-c]pyrimidin-7-yloxy)-3-methylphenyl)-5-(2-cyclopropyl-2,6-diazabicyclo[3.2.0]heptan-6-yl)-6-methoxyquinazolin-4-amine] gave a pIC50 of 7.77.
The value for `COc1ccc2ncnc(Nc3ccc(Oc4cc5ncnn5cn4)c(C)c3)c2c1O[C@@H]1CN(C)CC1(F)F` [Example 74, (R)—N-(4-([1,2,4]triazolo[1,5-c]pyrimidin-7-yloxy)-3-methylphenyl)-5-((4,4-difluoro-1-methylpyrrolidin-3-yl)oxy)-6-methoxyquinazolin-4-amine] was 8.00; that for `COc1ccc2ncnc(Nc3ccc(Oc4cc5ncnn5cn4)c(C)c3)c2c1O[C@@H]1CCN(C(C)C)CC1(F)F` [Example 78, (R)-N-(4-([1,2,4]triazolo[1,5-c]pyrimidin-7-yloxy)-3-methylphenyl)-5-((3,3-difluoro-1-isopropylpiperidin-4-yl)oxy)-6-methoxyquinazolin-4-amine] was 7.96; that for `COc1ccc2ncc(C#N)c(Nc3ccc(Oc4cc5ncnn5cn4)c(C)c3)c2c1O[C@@H]1CCN(C)CC1(F)F` [Example 86, (R)-4-((4-([1,2,4]triazolo[1,5-c]pyrimidin-7-yloxy)-3-methylphenyl)amino)-5-((3,3-difluoro-1-methylpiperidin-4-yl)oxy)-6-methoxyquinoline-3-carbonitrile] was 6.68.
With `Cc1cc(Nc2ncnc3ccc(OC(F)(F)F)c(O[C@@H]4CCN(C)CC4(F)F)c23)ccc1Oc1cc2ncnn2cn1` [Example 72, (R)—N-(4-([1,2,4]-triazolo[1,5-c]pyrimidin-7-yloxy)-3-methylphenyl)-5-((3,3-difluoro-1-methylpiperidin-4-yl)oxy)-6-(trifluoromethoxy)quinazolin-4-amine], the negative logarithm of the IC50 (pIC50) was 7.29.
The molecule `Cc1cc(Nc2ncnc3ccc(NC(=O)/C=C/[C@H]4CCCN4C)c(O[C@@H]4CCN(C)CC4(F)F)c23)ccc1Oc1cc2ncnn2cn1` [Example 95, (E)-N-(4-((4-([1,2,4]triazolo[1,5-c]pyrimidin-7-yloxy)-3-methylphenyl)amino)-5-(((R)-3,3-difluoro-1-methylpiperidin-4-yl)oxy)quinazolin-6-yl)-3-((R)-1-methylpyrrolidin-2-yl)acrylamide] had a negative logarithm of the IC50 (pIC50) of 7.32.
As for `Cc1cc(Nc2ncnc3ccc(NC(=O)/C=C/CN(C)C)c(O[C@@H]4CCN(C)CC4(F)F)c23)ccc1Oc1cc2ncnn2cn1` [Example 92, (R,E)-N-(4-((4-([1,2,4]triazolo[1,5-c]pyrimidin-7-yloxy)-3-methylphenyl)amino)-5-((3,3-difluoro-1-methylpiperidin-4-yl)oxy)quinazolin-6-yl)-4-(dimethylamino)but-2-enamide], the figure is 6.57.
The value for `COc1ccc2ncnc(Nc3ccc(Oc4cc5ncnn5cn4)c(C)c3)c2c1N1CC[C@@H](N(C)C)C1` [Example 2, (R)—N-(4-([1,2,4]-triazolo[1,5-c]pyrimidin-7-yloxy)-3-methylphenyl)-5-(3-(dimethylamino)pyrrolidin-1-yl)-6-methoxyquinazolin-4-amine] was 7.57.
With `C=CC(=O)N1CCC=C(c2cc(N3CC(N(C)C)C3)c3c(Nc4ccc(Oc5cc6ncnn6cn5)c(C)c4)ncnc3c2)C1` [Example 84, 1-(5-(4-((4-([1,2,4]triazolo[1,5-c]pyrimidin-7-yloxy)-3-methylphenyl)amino)-5-(3-(dimethylamino)azetidin-1-yl)quinazolin-7-yl)-3,6-dihydropyridin-1(2H)-yl)prop-2-en-1-one], the negative-log IC50 (pIC50) is 6.68.
